According to ChEMBL document CHEMBL5241098, “Progress in the development of small molecular inhibitors of the Bruton's tyrosine kinase (BTK) as a promising cancer therapy” (Bioorg Med Chem, 2021):
pEC50, pIC50: −log10 of the molar value. Values belong to the molecule of their own block, whether it stands above or below them.

Columns and labels:
[1] = target: T1, Protein cereblon/Tyrosine-protein kinase BTK (Homo sapiens, UniProt Q06187+Q96SW2); assay: PROTAC activity at CRBN/BTK in human MINO cells assessed as decrease in BTK level by measuring maximal efficacy incubated for 24 hrs by Western blot analysis relative to control; assay type: cell-based
Target sequence in this assay (Q06187 2-659 limits assumed): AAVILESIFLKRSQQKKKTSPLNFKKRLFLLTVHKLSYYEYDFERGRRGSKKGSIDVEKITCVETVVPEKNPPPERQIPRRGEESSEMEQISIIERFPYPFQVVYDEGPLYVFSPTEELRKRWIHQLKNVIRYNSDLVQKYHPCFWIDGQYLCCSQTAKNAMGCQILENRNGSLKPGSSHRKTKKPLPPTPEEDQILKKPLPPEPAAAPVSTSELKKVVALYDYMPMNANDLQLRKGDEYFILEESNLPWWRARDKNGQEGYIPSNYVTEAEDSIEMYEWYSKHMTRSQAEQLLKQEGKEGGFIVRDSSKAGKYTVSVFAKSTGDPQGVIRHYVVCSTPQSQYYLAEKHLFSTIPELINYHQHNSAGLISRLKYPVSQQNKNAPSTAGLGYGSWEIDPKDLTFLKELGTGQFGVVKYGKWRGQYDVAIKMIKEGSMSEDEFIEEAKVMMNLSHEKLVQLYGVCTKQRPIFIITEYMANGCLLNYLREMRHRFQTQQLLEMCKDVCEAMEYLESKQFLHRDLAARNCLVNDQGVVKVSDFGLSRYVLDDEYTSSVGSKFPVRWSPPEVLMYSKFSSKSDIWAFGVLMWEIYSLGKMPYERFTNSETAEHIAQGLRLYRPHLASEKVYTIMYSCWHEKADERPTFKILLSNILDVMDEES
Target sequence in this assay (Q96SW2 whole entry partner): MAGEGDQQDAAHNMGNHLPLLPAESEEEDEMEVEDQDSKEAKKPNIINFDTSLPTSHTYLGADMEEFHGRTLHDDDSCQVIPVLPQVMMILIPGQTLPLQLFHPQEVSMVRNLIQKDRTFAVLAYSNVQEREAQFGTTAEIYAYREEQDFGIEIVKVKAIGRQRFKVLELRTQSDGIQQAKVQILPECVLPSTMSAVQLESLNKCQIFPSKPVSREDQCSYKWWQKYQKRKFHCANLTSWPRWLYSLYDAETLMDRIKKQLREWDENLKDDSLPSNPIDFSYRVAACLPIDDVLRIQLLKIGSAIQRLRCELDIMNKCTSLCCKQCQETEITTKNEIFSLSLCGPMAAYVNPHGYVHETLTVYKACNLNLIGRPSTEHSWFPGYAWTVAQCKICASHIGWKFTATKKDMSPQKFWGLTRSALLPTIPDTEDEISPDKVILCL

[2] = target: T1, Protein cereblon/Tyrosine-protein kinase BTK; assay: PROTAC activity at CRBN/BTK in human MINO cells assessed as decrease in BTK level incubated for 24 hrs by Western blot analysis; assay type: cell-based
Target sequence in this assay (Q06187 whole entry): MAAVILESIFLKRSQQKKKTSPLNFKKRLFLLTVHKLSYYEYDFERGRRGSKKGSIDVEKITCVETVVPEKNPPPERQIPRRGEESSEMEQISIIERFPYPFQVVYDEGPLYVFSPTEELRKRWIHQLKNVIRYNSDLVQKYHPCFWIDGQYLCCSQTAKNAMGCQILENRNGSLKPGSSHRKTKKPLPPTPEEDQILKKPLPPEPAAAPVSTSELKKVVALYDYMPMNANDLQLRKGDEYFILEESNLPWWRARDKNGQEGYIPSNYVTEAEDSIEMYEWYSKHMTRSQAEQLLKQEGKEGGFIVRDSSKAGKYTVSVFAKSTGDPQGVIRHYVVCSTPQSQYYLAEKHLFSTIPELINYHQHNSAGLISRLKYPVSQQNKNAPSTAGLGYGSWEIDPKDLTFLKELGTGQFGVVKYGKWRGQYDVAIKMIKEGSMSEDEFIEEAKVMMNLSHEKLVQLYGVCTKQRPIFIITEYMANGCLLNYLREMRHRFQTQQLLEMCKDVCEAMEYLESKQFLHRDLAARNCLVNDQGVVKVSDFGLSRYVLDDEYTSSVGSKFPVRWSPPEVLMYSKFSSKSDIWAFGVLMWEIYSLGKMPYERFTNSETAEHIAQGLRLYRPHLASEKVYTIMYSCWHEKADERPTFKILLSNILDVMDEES
Target sequence in this assay (Q96SW2 whole entry): as the sequence (Q96SW2 whole entry partner) above

[3] = Antiproliferative activity against human MINO cells assessed as reduction in cell viability incubated for 72 hrs by CellTiter Glo luminescence assay
[4] = target: T2, Tyrosine-protein kinase BTK (Homo sapiens, UniProt Q06187); assay: Inhibition of BTK (unknown origin) incubated for 40 mins in the presence of ATP by scintillation based radiometric protein kinase assay
Maver1 = assay: Antiproliferative activity against human MAVER-1 cells assessed as reduction in cell viability incubated for 72 hrs by CellTiter Glo luminescence assay; details: Maver1, 72 h
Z-138 = assay: Antiproliferative activity against human Z138 cells assessed as reduction in cell viability incubated for 72 hrs by CellTiter Glo luminescence assay; details: Z-138, 72 h
JeKo-1 = assay: Antiproliferative activity against BTK knockout human JeKo-1 cells assessed as reduction in cell viability incubated for 72 hrs by CellTiter Glo luminescence assay; details: JeKo-1, 72 h
Ramos = assay: Antiproliferative activity against human Ramos cells assessed as reduction in cell viability incubated for 72 hrs by CCK-8 assay
NAMALVA = assay: Antiproliferative activity against human NAMALVA cells assessed as reduction in cell viability incubated for 72 hrs by CCK-8 assay
Raji = assay: Antiproliferative activity against human Raji cells assessed as reduction in cell viability incubated for 72 hrs by CCK-8 assay
[5] = target: T1, Protein cereblon/Tyrosine-protein kinase BTK; assay: PROTAC activity at CRBN/BTK in human NAMALVA cells assessed as decrease in BTK level by measuring maximal efficacy incubated for 24 hrs by Western blot analysis relative to control; assay type: cell-based
Target sequence in this assay (Q06187 2-659 limits assumed): as the sequence (Q06187 2-659 limits assumed) above
Target sequence in this assay (Q96SW2 whole entry partner): as the sequence (Q96SW2 whole entry partner) above

[6] = target: T1, Protein cereblon/Tyrosine-protein kinase BTK; assay: PROTAC activity at CRBN/BTK in human NAMALVA cells assessed as decrease in BTK level incubated for 24 hrs by Western blot analysis; assay type: cell-based
Target sequence in this assay (Q06187 whole entry): as the sequence (Q06187 whole entry) above
Target sequence in this assay (Q96SW2 whole entry): as the sequence (Q96SW2 whole entry partner) above

[7] = target: T2, Tyrosine-protein kinase BTK; assay: Inhibition of BTK (unknown origin) in the presence of ATP
[8] = target: T3, Receptor-type tyrosine-protein kinase FLT3 (Homo sapiens, UniProt P36888); assay: Inhibition of FLT3 (unknown origin)
T3 sequence (P36888 whole entry): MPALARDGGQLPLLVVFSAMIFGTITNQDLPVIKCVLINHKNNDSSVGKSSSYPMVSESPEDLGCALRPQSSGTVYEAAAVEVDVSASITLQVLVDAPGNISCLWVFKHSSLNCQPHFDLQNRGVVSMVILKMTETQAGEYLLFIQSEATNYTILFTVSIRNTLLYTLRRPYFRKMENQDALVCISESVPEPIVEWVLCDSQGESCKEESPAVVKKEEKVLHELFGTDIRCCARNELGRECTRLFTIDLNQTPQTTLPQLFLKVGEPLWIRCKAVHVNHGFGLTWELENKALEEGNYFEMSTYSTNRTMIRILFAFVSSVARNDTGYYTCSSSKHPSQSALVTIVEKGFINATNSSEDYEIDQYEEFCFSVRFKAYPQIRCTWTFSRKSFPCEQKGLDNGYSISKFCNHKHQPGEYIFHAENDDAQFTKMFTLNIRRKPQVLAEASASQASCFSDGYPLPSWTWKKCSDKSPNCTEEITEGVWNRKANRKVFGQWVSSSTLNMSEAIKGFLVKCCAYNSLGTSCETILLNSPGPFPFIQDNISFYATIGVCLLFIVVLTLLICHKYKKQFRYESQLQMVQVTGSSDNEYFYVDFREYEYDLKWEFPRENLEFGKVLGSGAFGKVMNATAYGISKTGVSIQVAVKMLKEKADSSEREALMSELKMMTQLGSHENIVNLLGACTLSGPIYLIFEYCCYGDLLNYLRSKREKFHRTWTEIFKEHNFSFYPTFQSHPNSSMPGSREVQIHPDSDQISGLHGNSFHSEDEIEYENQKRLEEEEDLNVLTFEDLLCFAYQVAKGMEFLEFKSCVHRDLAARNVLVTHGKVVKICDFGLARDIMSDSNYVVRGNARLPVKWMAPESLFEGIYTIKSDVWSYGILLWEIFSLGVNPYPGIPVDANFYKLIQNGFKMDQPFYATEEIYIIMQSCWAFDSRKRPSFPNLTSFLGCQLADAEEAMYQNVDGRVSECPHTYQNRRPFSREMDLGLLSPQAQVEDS

[9] = target: Protein cereblon/Tyrosine-protein kinase BTK (Homo sapiens, UniProt Q06187+Q96SW2, C481S); assay: PROTAC activity at CRBN/BTK C481S mutant in human Ramos cells assessed as decrease in BTK C481S level incubated for 48 hrs by immunoblot analysis; assay type: cell-based
Sequence of Protein cereblon/Tyrosine-protein kinase BTK (Homo sapiens, UniProt Q06187+Q96SW2, C481S) (Q06187 2-659 C481S limits assumed, stated change not applied): as the sequence (Q06187 2-659 limits assumed) above, with C480S counted along it
Sequence of Protein cereblon/Tyrosine-protein kinase BTK (Homo sapiens, UniProt Q06187+Q96SW2, C481S) (Q96SW2 whole entry, stated change not applied): as the sequence (Q96SW2 whole entry partner) above

T2 sequence (Q06187 whole entry): as the sequence (Q06187 whole entry) above

Emax [1]: 97%
pEC50 [2]: 8.66
SMILES: Nc1ncnc2c1c(-c1ccc(Oc3ccccc3)cc1)nn2C1CCCN(C(=O)CCCCCCCOCCOCCOCCOCCOc2cccc3c2C(=O)N(C2CCC(=O)NC2=O)C3=O)C1 (configuration not stated)

Emax [1]: 90%
pEC50 [2]: 8.00
SMILES: C#C/C(=C\C(C)(C)CCCCOCCOCCOCCOCCOc1cccc2c1C(=O)N(C1CCC(=O)NC1=O)C2=O)C(=O)N1CCCC(n2nc(-c3ccc(Oc4ccccc4)cc3)c3c(N)ncnc32)C1 (configuration not stated)

pIC50 [4]: 7.41
SMILES: Nc1ncnc2c1c(-c1ccc(Oc3ccccc3)cc1)nn2Cc1ccccc1F
pIC50 [3]: 4.95
pIC50 (Maver1): 4.46
pIC50 (Z-138): 4.36
pIC50 (JeKo-1): 4.48

SMILES: Nc1cccc(Cn2nc(-c3ccc(Oc4ccccc4)cc3)c3c(N)ncnc32)c1
pIC50 (Maver1): 4.77
pIC50 (Z-138): 4.85
pIC50 (JeKo-1): 4.95

pIC50 (Ramos): 5.03
pIC50 (Raji): 5.36
SMILES: C=CC(=O)Nc1cccc(Nc2nc(Nc3ccc(Cn4cc(C)nc4CC)cc3)ncc2F)c1
pIC50 (NAMALVA): 5.31

SMILES: Nc1ncnc2c1c(-c1ccc(Oc3ccccc3)cc1)nn2Cc1cccc(NC(=O)CCl)c1
pIC50 (Maver1): 6.40
pIC50 (Z-138): 6.10
pIC50 (JeKo-1): 6.40

Emax [5]: > 99%
pEC50 [6]: 8.21
SMILES: Nc1ncnc2c1c(-c1ccc(Oc3ccccc3)cc1)nn2C1CCN(CCOCCOCC(=O)Nc2ccc3c(c2)C(=O)N(C2CCC(=O)NC2=O)C3=O)CC1 (configuration not stated)

pIC50 [7]: 5.89
SMILES: CN1CCN(c2ccc(Nc3nc(Nc4ccc(F)cc4)c4ncn(CC5CC5)c4n3)cc2)CC1

pIC50 [7]: 5.74
SMILES: CN1CCN(c2ccc(Nc3nc(Nc4cccc(F)c4)c4ncn(CC5CC5)c4n3)cc2F)CC1

pIC50 (Ramos): 4.97
pIC50 (Raji): 5.10
SMILES: C=CC(=O)Nc1cccc(Nc2nc(Nc3ccc(Cn4cc(C)nc4CC)cc3)ncc2Cl)c1
pIC50 (NAMALVA): 5.31

pIC50 [8]: 7.10
SMILES: Cc1cnc(-c2ccc(-c3ccc(NC(=O)Nc4cccc(C(F)(F)F)c4)cc3F)c3c2C(=O)NC3)[nH]1

SMILES: Nc1ncnc2c1c(-c1ccc(Oc3ccccc3)cc1)nn2[C@@H]1CCCN(C(=O)c2cn(CCOCCOCCOCCNc3cccc4c3C(=O)N(C3CCC(=O)NC3=O)C4=O)nn2)C1 (some centres not stated)
pEC50 [9]: 7.52
